Active and inactive are the calls of the source.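 Rule for the calls: active = half-maximal concentration for changing protein binding to DNA, from the fitted dose curve, below 10 micromolar; inactive = the rest.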
Target: Nuclear receptor subfamily 1 group D member 1 (Homo sapiens) (UniProt P20393)
Test: modulators of Rev-erb alpha DNA binding, dose response, biochemical, FITC-DNA, fluorescence polarization (AID 1259321)

Sequence of Nuclear receptor subfamily 1 group D member 1 (Homo sapiens) (P20393 whole entry, looked up): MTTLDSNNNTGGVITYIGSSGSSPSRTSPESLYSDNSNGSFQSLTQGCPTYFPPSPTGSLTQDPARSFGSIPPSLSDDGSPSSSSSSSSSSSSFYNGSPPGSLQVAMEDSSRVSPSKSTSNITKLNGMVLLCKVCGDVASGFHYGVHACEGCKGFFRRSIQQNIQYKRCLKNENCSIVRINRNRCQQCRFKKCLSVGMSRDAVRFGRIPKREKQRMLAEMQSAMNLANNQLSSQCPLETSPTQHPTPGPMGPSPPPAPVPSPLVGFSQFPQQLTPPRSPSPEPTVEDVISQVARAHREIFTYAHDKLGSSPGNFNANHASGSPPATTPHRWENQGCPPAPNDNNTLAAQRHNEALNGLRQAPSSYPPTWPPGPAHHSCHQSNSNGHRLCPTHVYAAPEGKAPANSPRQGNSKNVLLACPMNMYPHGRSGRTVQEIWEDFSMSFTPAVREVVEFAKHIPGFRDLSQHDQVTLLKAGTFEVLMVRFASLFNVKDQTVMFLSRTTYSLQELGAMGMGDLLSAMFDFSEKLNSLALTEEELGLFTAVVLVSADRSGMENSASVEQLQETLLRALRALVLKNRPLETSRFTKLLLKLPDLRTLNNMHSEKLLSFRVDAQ

Question: How did the IC50 turn out when `COc1ccc2c(C)cc(SCC(=O)Nc3cccnc3Cl)nc2c1` was run?
Answer: > 40 µM (inactive)

Question: With `C#CCn1c(=NC(=O)c2ccc(Br)s2)sc2cccc(OC)c21` as the molecule, how does the IC50 read?
Answer: 2.4 µM

Question: For `CCOC(=O)c1sc(=NC(=O)c2ccc(OC(C)C)cc2)n(C)c1C`, which IC50 is on record?
Answer: 0.933 µM

Question: With `CCOC(=O)c1c(NC(=S)Nc2ccc(OC)cc2)sc2c1CCC2` as the molecule, how does the IC50 read?
Answer: 5.93 µM

Question: With `O=C(CSc1ncnc2c1oc1ccccc12)Nc1cccc(F)c1` as the molecule, how does the IC50 read?
Answer: 2.51 µM

Question: How did the IC50 turn out when `CCNC(=O)Nc1ccc2c(c1)C(=O)N(C)[C@H]1CC[C@H](CC(=O)N[C@H](C)c3ccccc3)O[C@@H]1CO2` was run?
Answer: inactive

Question: With `Cc1nc(SCC(=O)NC2CCCC2)c2oc3ccccc3c2n1` as the molecule, how does the IC50 read?
Answer: 7.45 µM

Question: Which IC50 does the source give for `COc1ccc(C(=O)Nc2nc(C)c(C(C)=O)s2)cc1S(=O)(=O)N1CCOCC1` here?
Answer: > 40 µM (inactive)

Question: How did the IC50 turn out when `CN(CC(=O)Nc1ccc(Cl)cc1)S(=O)(=O)c1ccc2c(c1)n(C)c(=O)c(=O)n2C` was run?
Answer: 5.44 µM

Question: `Fc1cccc2sc(Nc3nc4cc5c(cc4s3)OCCO5)nc12` was tested. Which IC50 did it give?
Answer: inactive

Question: For `COc1cc(OC)cc(-c2c(Sc3ccccc3)c3cc(-c4ccc(OC)c(F)c4)ccc3n2C)c1`, which IC50 is on record?
Answer: 1.33 µM

Question: With `CCN(CC)c1ccc(-c2c(C#N)c(N)nc(OC)c2C#N)cc1` as the molecule, how does the IC50 read?
Answer: > 40 µM (inactive)

Question: Which IC50 does the source give for `COc1ccc(C(C)=O)cc1CSc1nc2ccccc2c(=O)n1-c1cccc(C)c1` here?
Answer: 2.17 µM

Question: How did the IC50 turn out when `Cc1ccc(C)c(Nc2nc3c(S(=O)(=O)c4ccccc4)nnn3c3ccccc23)c1` was run?
Answer: 8.48 µM

Question: For `Cc1c(C#N)c(N)nc2c3c(sc12)NC(=O)CC3c1ccc(Cl)cc1` (stereo unspecified), which IC50 is on record?
Answer: > 40 µM (inactive)

Question: How did the IC50 turn out when `CCCCCCCn1c(=O)c(C(=O)Nc2cnccn2)c(O)c2ccccc21` was run?
Answer: inactive

Question: How did the IC50 turn out when `COc1ccc(-c2c(C#N)c(N)nc(Sc3ccc(Cl)cc3)c2C#N)cc1` was run?
Answer: 3.66 µM

Question: How did the IC50 turn out when `COc1ccc(C(=O)Nc2ccc(C(F)(F)F)n(C)c2=O)cc1` was run?
Answer: > 40 µM (inactive)

Question: For `CN(C)c1ccc(N=Nc2ccccc2C(=O)OCC(=O)NCC2CCCCC2)cc1`, which IC50 is on record?
Answer: 7.85 µM

Question: For `O=C(COC(=O)c1sc2cc(F)ccc2c1Cl)Nc1ncc(Cl)cc1Cl`, which IC50 is on record?
Answer: > 40 µM (inactive)

Question: With `Cc1cc(C)c2cc(C#N)c(SCC(=O)Nc3ccc4c(c3)OCO4)nc2c1` as the molecule, how does the IC50 read?
Answer: 7.14 µM

Question: Which IC50 does the source give for `COC(=O)c1ccc(CSc2ncnc3c2oc2ccccc23)o1` here?
Answer: 2.73 µM

Question: With `O=c1[nH]c(Cc2ccc(F)cc2)nc2scc(-c3ccc(F)cc3)c12` as the molecule, how does the IC50 read?
Answer: 9.5 µM

Question: With `COc1ccc2c(c1)c(/C=C/c1cc[n+](C)cc1)cn2C` as the molecule, how does the IC50 read?
Answer: inactive

Question: With `COc1ccc(NC(=O)c2sc3nc(N4CCCC4)c4c(c3c2N)CC(C)(C)OC4)cc1` as the molecule, how does the IC50 read?
Answer: > 40 µM (inactive)

Question: Which IC50 does the source give for `COc1ccc(NC(=O)CSc2nc3ccccc3c(=O)n2-c2ccc3c(c2)OCO3)c(OC)c1` here?
Answer: > 40 µM (inactive)

Question: With `CCOc1ccc(CNC(=O)C2CCN(c3nnc(C)c4c(C)n(-c5ccc(C)cc5)nc34)CC2)cc1` as the molecule, how does the IC50 read?
Answer: inactive

Question: For `COc1ccc(Cl)cc1-c1cc(C(=O)Nc2ccc(F)cc2)[nH]n1`, which IC50 is on record?
Answer: 3.13 µM

Question: With `Cc1ccc(-n2c(SCC(=O)Nc3cccc(C)c3)nc3c(oc4ccccc43)c2=O)cc1` as the molecule, how does the IC50 read?
Answer: 2.18 µM

Question: Which IC50 does the source give for `O=S(=O)([N-]c1nc2ccccc2nc1-n1cc[n+](Cc2ccccc2)c1)c1ccc(Br)cc1` here?
Answer: 1.06 µM

Question: `O=c1ccc(-c2ccc(S(=O)(=O)N3CCN(c4ccccc4)CC3)o2)n[nH]1` was tested. Which IC50 did it give?
Answer: > 40 µM (inactive)

Question: Which IC50 does the source give for `Brc1nc(-c2ccccc2)nc(-c2ccccc2)c1Br` here?
Answer: > 40 µM (inactive)

Question: How did the IC50 turn out when `CCOC(=O)c1nnn2c1nc(Nc1cccc(C(F)(F)F)c1)c1ccccc12` was run?
Answer: 1.86 µM

Question: How did the IC50 turn out when `COc1cc(OC)c(N(C)S(=O)(=O)c2cccc(C(=O)OCc3c(C)noc3C)c2)cc1Cl` was run?
Answer: 5.12 µM

Question: `CCC(c1ccc(O)cc1)C(CC)c1ccc(O)cc1` (stereo unspecified) was tested. Which IC50 did it give?
Answer: inactive

Question: `CN(C)/C=C1\C=C2C(=O)c3ccccc3N2C1=O` was tested. Which IC50 did it give?
Answer: 0.714 µM

Question: With `O=C(CCSc1nnc2scc(-c3ccccc3)n12)Nc1nc(-c2ccccc2)ns1` as the molecule, how does the IC50 read?
Answer: inactive

Question: `Nc1ccc2nc3c(=O)n(CCc4ccccc4)c(=O)[nH]c3nc2c1` was tested. Which IC50 did it give?
Answer: 2.89 µM

Question: How did the IC50 turn out when `CN1C(=O)C(=Cc2ccc(N3CCOCC3)o2)C(=O)N(C)C1=S` was run?
Answer: 4.11 µM

Question: How did the IC50 turn out when `CCCCCNC(=O)c1c[nH]c2ccc(S(=O)(=O)N3CCC4(CC3)OCCO4)cc2c1=O` was run?
Answer: inactive

Question: How did the IC50 turn out when `COCCn1c(=NC(=O)c2nc3ccccc3s2)sc2cc(S(C)(=O)=O)ccc21` was run?
Answer: 4.6 µM

Question: `COC(=O)Cn1cc(/C=C/c2cc[n+](C)cc2)c2ccccc21` was tested. Which IC50 did it give?
Answer: inactive

Question: With `COc1ccc2cc(C(=O)COC(=O)COc3ccc4c(C)cc(=O)oc4c3)ccc2c1` as the molecule, how does the IC50 read?
Answer: 4.26 µM

Question: Which IC50 does the source give for `Cc1cnc(NC(=O)c2cc3c(C)nn(-c4ccccc4)c3s2)s1` here?
Answer: 3.83 µM

Question: How did the IC50 turn out when `Cc1ccc2nc(N3CCN(S(=O)(=O)c4ccc(C)c(Cl)c4)CC3)c(C#N)cc2c1` was run?
Answer: 3.31 µM

Question: Which IC50 does the source give for `CCn1c(SCC(=O)Nc2cc(C)on2)nc2sc(C)c(C)c2c1=O` here?
Answer: 4.73 µM

Question: For `CC1=NCCN1S(=O)(=O)c1c(C(C)C)cc(C(C)C)cc1C(C)C`, which IC50 is on record?
Answer: > 40 µM (inactive)

Question: `COc1ccc(CN(Cc2cc3cc(OC)c(OC)cc3[nH]c2=O)C(=O)NC2CCCCC2)cc1` was tested. Which IC50 did it give?
Answer: 3.44 µM

Question: For `O=C(CSc1nnc(-c2cccs2)n1-c1ccccc1)N1CCCc2ccccc21`, which IC50 is on record?
Answer: > 40 µM (inactive)

Question: For `Cc1ccc(CSc2nc3ccncc3n2CC(=O)Nc2cc(C)cc(C)c2)cc1`, which IC50 is on record?
Answer: > 40 µM (inactive)

Question: `Cc1coc2cc3oc(=O)c(Cc4ccccc4)c(C)c3cc12` was tested. Which IC50 did it give?
Answer: inactive

From PubChem BioAssay AID1259321 (Sanford-Burnham Center for Chemical Genomics, 2017)
